In the CheMixHub ionic liquid set:

Test: xn = mol fraction of the nth substance listed
Settings: 100 kPa

[Cl][Zn][Cl] + CCCC[n+]1ccn(C)c1.[Cl-]
303.15 K
Settings | electrical conductivity [S/m]
x2 = 0.333 | 0.00188
x2 = 0.5 | 0.0237
x2 = 0.666 | 0.0171

C[NH+](C)CCC=C1c2ccccc2CCc2ccccc21.[Cl-] + CCCC[n+]1ccn(C)c1.[Cl-] + O
electrical conductivity [S/m]
Settings | 298 K | 303 K | 308 K | 313 K | 318 K
x2 = 0.00018, x1 = 0.0007057 | 0.498 | 0.501 | 0.511 | 0.509 | 0.527
x2 = 0.00018, x1 = 0.0007396 | 0.512 | 0.519 | 0.535 | 0.522 | 0.55
x2 = 0.00018, x1 = 0.000773 | 0.524 | 0.533 | 0.538 | 0.536 | 0.564
x2 = 0.00018, x1 = 0.0008057 | 0.543 | 0.55 | 0.551 | 0.561 | 0.581
x2 = 0.00018, x1 = 0.0008382 | 0.56 | 0.564 | 0.566 | 0.57 | 0.595
x2 = 0.00018, x1 = 0.0008701 | 0.569 | 0.578 | 0.58 | 0.587 | 0.613
x2 = 0.00018, x1 = 0.0009016 | 0.579 | 0.589 | 0.597 | 0.602 | 0.629
x2 = 0.00018, x1 = 0.0009322 | 0.591 | – | 0.611 | 0.62 | –
x2 = 0.0001801, x1 = 8.875e-05 | 0.189 | 0.186 | 0.193 | 0.19 | 0.188
x2 = 0.0001801, x1 = 0.0001104 | 0.201 | 0.198 | 0.203 | 0.202 | 0.202
x2 = 0.0001801, x1 = 0.0001321 | 0.215 | 0.209 | 0.216 | 0.212 | 0.21
x2 = 0.0001801, x1 = 0.0001534 | 0.227 | 0.223 | 0.228 | 0.224 | 0.224
x2 = 0.0001801, x1 = 0.0001747 | 0.24 | 0.235 | 0.239 | 0.238 | 0.235
x2 = 0.0001801, x1 = 0.0001956 | 0.251 | 0.248 | 0.247 | 0.249 | 0.249
x2 = 0.0001801, x1 = 0.0002165 | 0.272 | 0.27 | 0.274 | 0.259 | 0.26
x2 = 0.0001801, x1 = 0.0002578 | 0.293 | 0.288 | 0.293 | 0.277 | 0.285
x2 = 0.0001801, x1 = 0.0002984 | 0.313 | 0.306 | 0.315 | 0.301 | 0.31
x2 = 0.0001801, x1 = 0.0003383 | 0.328 | 0.328 | 0.335 | 0.321 | 0.332
x2 = 0.0001801, x1 = 0.0003776 | 0.348 | 0.345 | 0.353 | 0.34 | 0.351
x2 = 0.0001801, x1 = 0.0004164 | 0.365 | 0.368 | 0.37 | 0.357 | 0.374
x2 = 0.0001801, x1 = 0.0004544 | 0.385 | 0.383 | 0.388 | 0.381 | 0.392
x2 = 0.0001801, x1 = 0.0004919 | 0.406 | 0.401 | 0.407 | 0.397 | 0.413
x2 = 0.0001801, x1 = 0.0005289 | 0.42 | 0.416 | 0.427 | 0.42 | 0.431
x2 = 0.0001801, x1 = 0.0005653 | 0.437 | 0.435 | 0.44 | 0.433 | 0.455
x2 = 0.0001801, x1 = 0.0006012 | 0.451 | 0.452 | 0.46 | 0.457 | 0.471
x2 = 0.0001801, x1 = 0.0006365 | 0.469 | 0.469 | 0.476 | 0.472 | 0.493
x2 = 0.0001801, x1 = 0.0006715 | 0.485 | 0.485 | 0.496 | 0.491 | 0.51
x2 = 0.0001802, x1 = 2.245e-05 | 0.15 | – | 0.147 | 0.156 | 0.152
x2 = 0.0001802, x1 = 4.474e-05 | 0.165 | 0.159 | 0.162 | 0.167 | 0.163
x2 = 0.0001802, x1 = 6.683e-05 | 0.177 | 0.174 | 0.182 | 0.179 | 0.176

CC[n+]1ccccc1.N#C[N-]C#N + CCCO
Settings | viscosity [mPa·s]
288.15 K, x2 = 0.1095 | 20.5
288.15 K, x2 = 0.1947 | 17.6
288.15 K, x2 = 0.8012 | 4.59
293.15 K, x2 = 0 | 22.1
293.15 K, x2 = 0.3011 | 13.3
293.15 K, x2 = 0.8012 | 4.05
298.15 K, x2 = 0.5008 | 7.45
298.15 K, x2 = 0.9 | 2.77
303.15 K, x2 = 0.4029 | 8.04
303.15 K, x2 = 0.702 | 4.19
308.15 K, x2 = 0.1947 | 9.87
308.15 K, x2 = 0.5008 | 5.9
308.15 K, x2 = 0.8012 | 2.92
308.15 K, x2 = 0.9 | 2.24
313.15 K, x2 = 0.1947 | 8.76
313.15 K, x2 = 0.5008 | 5.31
318.15 K, x2 = 0 | 11
318.15 K, x2 = 0.5008 | 4.8
318.15 K, x2 = 0.702 | 3.12
318.15 K, x2 = 0.9 | 1.84

CC[n+]1ccccc1.N#C[N-]C#N + CCO
Settings | viscosity [mPa·s]
288.15 K, x2 = 0 | 25.9
288.15 K, x2 = 0.1008 | 21.3
293.15 K, x2 = 0.1008 | 17.9
298.15 K, x2 = 0 | 18.9
298.15 K, x2 = 0.1974 | 12.4
298.15 K, x2 = 0.3008 | 10.3
298.15 K, x2 = 0.7999 | 2.54
303.15 K, x2 = 0.9011 | 1.69
308.15 K, x2 = 0.5058 | 5.17
313.15 K, x2 = 0.3994 | 5.99
313.15 K, x2 = 0.5058 | 4.69
313.15 K, x2 = 0.5994 | 3.74
313.15 K, x2 = 0.6996 | 2.92
318.15 K, x2 = 0.1008 | 8.97
318.15 K, x2 = 0.3994 | 5.44

CC[n+]1ccn(CCOC)c1.O=S(=O)([N-]S(=O)(=O)C(F)(F)F)C(F)(F)F + CCO
viscosity [mPa·s]
Settings | x1 = 0.1 | x1 = 0.1947 | x1 = 0.2995 | x1 = 0.4 | x1 = 0.5002 | x1 = 0.6001 | x1 = 0.6999 | x1 = 0.8 | x1 = 0.9 | x1 = 1
288.15 K | 2.988 | 5.32 | 8.21 | 12.02 | 17.17 | 22.86 | 29.81 | 37.73 | 47.39 | 54.62
293.15 K | 2.648 | 4.62 | 7.03 | 10.16 | 14.5 | 19.09 | 24.64 | 30.74 | 38.01 | 43.63
298.15 K | 2.361 | 4.046 | 6.09 | 8.7 | 12.31 | 16.25 | 20.6 | 25.4 | 31.15 | 35.49
303.15 K | 2.117 | 3.591 | 5.32 | 7.53 | 10.53 | 13.87 | 17.61 | 21.35 | 25.87 | 29.33
308.15 K | 1.907 | 3.195 | 4.688 | 6.58 | 9.1 | 11.89 | 15.14 | 18.22 | 21.81 | 24.58
313.15 K | 1.725 | 2.861 | 4.162 | 5.799 | 7.91 | 10.27 | 13.06 | 15.8 | 18.68 | 20.86
318.15 K | 1.568 | 2.576 | 3.743 | 5.15 | 6.95 | 8.97 | 11.36 | 13.73 | 16.27 | 18.03
